Measured values: patent US10000471B2, “Pyrazole P38 map kinase inhibitors” (Respivert Limited, priority 2010, dated 2018)
pEC50, pIC50: −log10 of the molar value.

Tests used:
[1] = system: IL-8 release in d-U937 cells; experiment: LPS-induced IL-8 release in d-U937 cells; format: cell-based, human; settings: Homo sapiens, dU937
Outline: (§1)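 Sandwich ELISA of TNFα and IL-8 in supernatants after 4 hr 0.1 μg/mL LPS (E. coli O111:B4) challenge of U937 cells differentiated with PMA 100 ng/ml for 48–72 hr, compound added 2 hr beforehand. IL-8: IC50 from inhibition versus vehicle; TNFα: REC50 from inhibition as percentage of 10 μg/mL BIRB796 effect.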

p38 MAPKγ (MAPK12) = target: T1, p38 MAPKγ (MAPK12) (Homo sapiens, UniProt P53778); experiment: Enzyme inhibition assay (FRET, Z-LYTE), p38 MAPKγ; format: biochemical; settings: read-out: Enzyme Inhibition IC50 p38γ
T1 construct: purchased Invitrogen
T1 sequence (P53778 1-367): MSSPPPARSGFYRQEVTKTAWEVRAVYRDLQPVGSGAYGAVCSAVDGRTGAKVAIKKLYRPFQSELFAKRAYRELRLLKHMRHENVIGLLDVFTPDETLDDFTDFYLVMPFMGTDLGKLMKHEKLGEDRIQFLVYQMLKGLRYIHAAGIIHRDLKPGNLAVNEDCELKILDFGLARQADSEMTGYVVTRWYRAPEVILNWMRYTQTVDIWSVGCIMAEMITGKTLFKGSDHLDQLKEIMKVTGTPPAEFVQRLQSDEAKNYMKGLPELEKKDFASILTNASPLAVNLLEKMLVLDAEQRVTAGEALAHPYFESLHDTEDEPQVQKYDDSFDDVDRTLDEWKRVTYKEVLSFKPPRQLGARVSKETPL
Outline: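 Z-LYTE FRET readout: after 1 h kinase reaction (ATP 100 μM, peptide 2 μM) following 2 h RT enzyme–compound preincubation in HEPES, protease cleaves only unphosphorylated peptide. Percent inhibition from donor/acceptor ratio relative to control; IC50 fitted from the curve.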

[2] = system: TNFα release in d-U937 cells; experiment: LPS-induced TNFα release in d-U937 cells; format: cell-based, human; settings: Homo sapiens, dU937, relative to 10 μg/mL BIRB796, read-out: LPS/TNFα REC50 d-U937
Outline: as §1

[3] = system: Differentiated U937 cells; experiment: Cell viability MTT assay; format: cell-based, human; settings: negative = apparent increase in viability; for MTT Assay (Viability) 4 h d-U937, percentage loss of cell viability: 4 hr in 5% FCS; for MTT Assay (Viability) 24 h d-U937, percentage loss of cell viability: 24 h in 10% FCS
Outline: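 Differentiated U937 cells pre-incubated with compound either 4 hr in 5% FCS or 24 h in 10% FCS, then 1 hr MTT. Formazan dissolved in DMSO, absorbance at 550 nm. Percentage viability loss relative to 0.5% DMSO vehicle; apparent increases appear as negative percentages.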

[4] = system: ICAM-1 induction in BEAS2B cells; experiment: Poly I:C-induced ICAM-1 induction in BEAS2B cells; format: cell-based, human; settings: Homo sapiens, BEAS-2B, read-out: PolyIC/ICAM1 IC50 BEAS2B
Outline: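 IC50 reflects inhibition of cell-surface ICAM-1 relative to vehicle, read by ELISA (OD450 against 655 nm) and divided by crystal violet OD595 for cell number. Readings were taken 18 hr after transfection of 1 μg/mL poly I:C into BEAS2B cells. Compound was added 2 hr before stimulation.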

[5] = target: T2, p38 MAPKα isoform (MAPK14) (Homo sapiens, UniProt Q16539); experiment: Enzyme inhibition assay (FRET, Z-LYTE), p38 MAPKα via MAPKAP-K2 activation; format: biochemical; settings: read-out: Enzyme Inhibition IC50 p38α
T2 construct: purchased Invitrogen
T2 sequence (Q16539 whole entry, canonical isoform): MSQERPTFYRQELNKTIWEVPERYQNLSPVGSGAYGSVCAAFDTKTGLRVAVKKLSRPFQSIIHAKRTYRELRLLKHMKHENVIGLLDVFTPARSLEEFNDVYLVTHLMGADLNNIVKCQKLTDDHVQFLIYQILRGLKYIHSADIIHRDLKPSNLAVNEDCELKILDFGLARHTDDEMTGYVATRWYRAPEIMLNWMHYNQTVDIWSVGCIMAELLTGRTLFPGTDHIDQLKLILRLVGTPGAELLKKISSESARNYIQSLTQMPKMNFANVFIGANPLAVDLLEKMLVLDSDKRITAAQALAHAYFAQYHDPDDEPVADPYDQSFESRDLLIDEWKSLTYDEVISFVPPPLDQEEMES
Outline: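 Z-LYTE FRET format, in which protease cleaves only non-phosphorylated peptide, read after 1 h development. Compound was mixed with p38 MAPKα for 2 h at RT, and inhibition was gauged from MAPKAP-K2 activation/phosphorylation rather than directly. Percent inhibition against an uninhibited control was fitted to give IC50.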

[6] = system: TNFα release in THP-1 cells; experiment: LPS-induced TNFα release in THP-1 cells; format: cell-based, human; settings: Homo sapiens
Outline: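 IC50 derived from concentration-response of TNFα inhibition relative to vehicle, with TNFα quantified by sandwich ELISA in supernatants. THP-1 cells were challenged 4 hr with LPS (E. coli, 3 μg/mL).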

Row | Structure (SMILES) | pIC50 [1] | pIC50 (p38 MAPKγ (MAPK12)) | pEC50 [2] | pIC50 [5] | pIC50 [6] | MTT Assay (Viability) 4 h d-U937, percentage loss of cell viability [3] [%] | MTT Assay (Viability) 24 h d-U937, percentage loss of cell viability [3] [%] | pIC50 [4]
1 | CN(C)CCCC(=O)Nc1cc(Oc2ccc(NC(=O)Nc3cc(C(C)(C)C)nn3-c3ccc(CO)cc3)c(Cl)c2Cl)ccn1 [Example 47, N-(4-(4-(3-(3-tert-butyl-1-(4-hydroxymethylphenyl)-1H-pyrazol-5-yl)ureido)-2,3-dichlorophenoxy)pyridin-2-yl)-4-(dimethylamino) butanamide] | 8.09 | 8.23 | 8.80 | 8.66 | 9.30 | −42.5 | 85.0 | 8.19
2 | COc1ccc(-n2nc(C(C)(C)C)cc2NC(=O)Nc2ccc(Oc3ccnc(NC(=O)NCCN(C)C)c3)c(Cl)c2Cl)cc1 [Example 13, 1-(3-tert-Butyl-1-(4-methoxyphenyl)-1H-pyrazol-5-yl)-3-(2,3-dichloro-4-((2-(3-(2-(dimethylamino)ethyl)ureido)pyridin-4-yl)oxy)phenyl)urea] | 8.89 | 7.66 | 8.68 | 7.95 | 8.77 | −6.4 | 63.9 | 8.68
3 | CNC(=O)Nc1cc(Oc2ccc(NC(=O)Nc3cc(C(C)(C)C)nn3-c3ccc(CO)cc3)c3cccnc23)ccn1 [Example 62] | 7.59 | 6.87 | 7.75 | 7.43 | 8.15 | −13.4 | −22.9 | 7.15
4 | COc1ccc(-n2nc(C(C)(C)C)cc2NC(=O)Nc2ccc(Oc3ccnc(NC(=O)CN(C)C)c3)c(Cl)c2Cl)cc1 [Example 43, N-(4-(4-(3-(3-tert-butyl-1-(4-methoxyphenyl)-1H-pyrazol-5-yl)ureido)-2,3-dichlorophenoxy)pyridin-2-yl)-2-(dimethylamino)acetamide] | 8.89 | 7.11 | 9.05 | 7.56 | 9.40 | −18.7 | 79.1 | 8.64
5 | COc1ccc(-n2nc(C(C)(C)C)cc2NC(=O)Nc2ccc(OCc3ccnc(NC(=O)N4CCCC4)c3)c(Cl)c2Cl)cc1 [Example 20, N-(4-((4-(3-(3-tert-Butyl-1-(4-methoxyphenyl)-1H-pyrazol-5-yl)ureido)-2,3-dichlorophenoxy)methyl)pyridin-2-yl)pyrrolidine-1-carboxamide] | 5.97 | < 4.81 | 7.16 | 7.51 | 7.34 | −19.1 | 9.6 | 7.78
6 | CN(C)[C@@H]1CCN(C(=O)Nc2cc(Oc3ccc(NC(=O)Nc4cc(C(C)(C)C)nn4-c4ccc(O)cc4)c(Cl)c3Cl)ccn2)C1 [Example 11, (R)—N-(4-(4-(3-(3-tert-Butyl-1-(4-hydroxyphenyl)-1H-pyrazol-5-yl)ureido)-2,3-dichlorophenoxy)pyridin-2-yl)-3-(dimethylamino)pyrrolidine-1-carboxamide] | 8.35 | 7.41 | 9.10 | 7.80 | 9.15 | −1.3 | 42.0 | 8.74
7 | CNC(=O)Nc1cc(Oc2ccc(NC(=O)Nc3cc(C(C)(C)C)nn3-c3ccc(CO)cc3)c3ncccc23)ccn1 [Example 61, 1-(4-(8-(3-(3-tert-butyl-1-(4-hydroxymethylphenyl)-1H-pyrazol-5-yl)ureido)quinolin-5-yloxy)pyridin-2-yl)-3-methylurea] | 6.63 | 7.03 | 6.74 | 7.49 | 8.60 | −31.9 | −12.9 | 7.94
8 | COCC(=O)Nc1cc(Oc2ccc(NC(=O)Nc3cc(C(C)(C)C)nn3-c3ccc(C)cc3)c3cccnc23)ccn1 [Example 6, N-(4-(5-(3-(3-tert-butyl-1-p-tolyl-1H-pyrazol-5-yl)ureido)quinolin-8-yloxy)pyridin-2-yl)-2-methoxyacetamide] | 8.41 | 7.24 | 10.00 | 8.17 | 8.80 | −21.3 | −14.6 | 8.14

Continued, in another order:

Row | pIC50 [1] | pIC50 (p38 MAPKγ (MAPK12)) | pEC50 [2] | pIC50 [5] | pIC50 [6] | Structure (SMILES) | MTT Assay (Viability) 4 h d-U937, percentage loss of cell viability [3] [%] | MTT Assay (Viability) 24 h d-U937, percentage loss of cell viability [3] [%] | pIC50 [4]
9 | < 5.75 | < 4.75 | 7.57 | 5.68 | 6.00 | COCC(=O)Nc1cc(Oc2c(NC(=O)Nc3cc(C(C)(C)C)nn3-c3ccc(C)cc3)ccc(F)c2F)ccn1 [Example 88, N-(4-(6-(3-(3-tert-butyl-1-p-tolyl-1H-pyrazol-5-yl)ureido)-2,3-difluorophenoxy)pyridin-2-yl)-2-methoxyacetamide] | 12.3 | 10.0 | 5.77
10 | 8.72 | 6.82 | 9.70 | 7.67 | 8.59 | CNC(=O)Nc1nccc(Oc2ccc(NC(=O)Nc3cc(C(C)(C)C)nn3-c3ccc(C)cc3)c(Cl)c2Cl)n1 [Example 96, 1-(3-tert-butyl-1-p-tolyl-1H-pyrazol-5-yl)-3-(2,3-dichloro-4-(2-(3-methylureido)pyrimidin-4-yloxy)phenyl)urea] | −16.1 | −13.4 | 7.52
11 | 10.00 | 6.69 | 10.00 | 7.48 | 8.85 | CNC(=O)Nc1cc(Oc2ccc(NC(=O)Nc3cc(C(C)(C)C)nn3-c3ccc(OC)cc3)c(Cl)c2Cl)ncn1 [Example 97, 1-(3-tert-butyl-1-(4-methoxyphenyl)-1H-pyrazol-5-yl)-3-(2,3-dichloro-4-(6-(3-methylureido)pyrimidin-4-yloxy)phenyl) urea] | −27.2 | 32.9 | 8.92
12 | 8.31 | 7.35 | 9.52 | 7.67 | 8.96 | COc1ccc(-n2nc(C(C)(C)C)cc2NC(=O)Nc2ccc(Oc3ccnc(NC(=O)NCCO)c3)c(Cl)c2Cl)cc1 [Example 66, 1-(4-(4-(3-(3-tert-butyl-1-(4-methoxyphenyl)-1H-pyrazol-5-yl)ureido)-2,3-dichlorophenoxy)pyridin-2-yl)-3-(2-hydroxyethyl)urea] | 15.0 | 90.3 | 8.26
13 | 8.02 | 7.57 | 8.85 | 7.86 | 8.92 | COc1cc(-n2nc(C(C)(C)C)cc2NC(=O)Nc2ccc(Oc3ccnc(NC(=O)N4CC[C@H](N(C)C)C4)c3)c(Cl)c2Cl)ccc1CO [Example 84, (S)-N-(4-(4-(3-(3-tert-butyl-1-(4-hydroxymethyl-3-methoxyphenyl)-1H-pyrazol-5-yl)ureido)-2,3-dichlorophenoxy)pyridin-2-yl)-3-(dimethylamino)pyrrolidine-1-carboxamide] | 3.2 | 56.7 | 8.59
